Test results from patent publication EP0465913B1, “Diaminotrifluoromethylpyrimidine derivatives, process for their production and phospholipase A2 inhibitor containing them” (ISHIHARA SANGYO KAISHA, LTD., priority 1990, dated 1992).
Where a name gives a salt, the structure may show the parent alone. Read-outs that look alike come from different tables or passages of the source.

What was measured:
[1] = molecular target: T1, Porcine pancreatic phospholipase A2 (Sus scrofa, UniProt P00592); experiment: Phospholipase A2 inhibitory activity, method A (egg yolk lecithin substrate); type: biochemical; settings: 1,000 ppm, 37°C for 30 minutes, read-out: % inhibition of PLA2 (1,000 ppm)
T1 construct: purchased Boehringer Mannheim·Yamanouchi K.K. 161454·122416
T1 sequence (P00592 23-146): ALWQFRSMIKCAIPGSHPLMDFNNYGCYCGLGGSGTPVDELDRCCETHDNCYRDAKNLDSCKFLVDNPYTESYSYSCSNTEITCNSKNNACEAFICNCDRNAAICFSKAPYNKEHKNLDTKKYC
Summary of the method: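 Egg yolk lecithin dispersed with glycerine, Triton X-100 and CaCl2 in 50 mM Tris-HCl pH7.5 was hydrolysed by enzyme (20 ng/ml solution) with compound, 37°C, 30 min. Released free fatty acid measured by ACS-ACOD method at 540 nm; apparent enzyme level read from a standard curve to give percent inhibition.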

[2] = Acute toxicity, intravenous injection (LD50); type: in vivo; settings: mouse, in vivo, iv, ddy male mice, sodium salt, mortality over one week
Description: Administration route: Intravenous injection
Using ddy male mice (body weight: 25 - 30 g), each test group consisted of 5 mice. A test compound was dissolved in the form of a sodium salt in a physiological saline or in a 5% glucose aqueous solution, and intravenously injected in an amount of 0.1 ml/10 g body weight. After the injection, the mortality rate was obtained over one week, and the median lethal dose LD50 (mg/kg) was determined.

[3] = system: experimental acute pancreatitis model; experiment: Effects against acute pancreatitis (Test Example 7, closed duodenal loop method, gross pathological examination); type: in vivo, Crj-CD male rats; set-up: key: -: No significant lesions; ± ∼ +++: Focal-diffuse; ± ∼ +++: Focal-diffuse; ± ∼ +++: Focal-diffuse; ± ∼ +++: Focal-diffuse; settings: 40 mg per kg continuous intravenous injection, examination 3 hours after ventrotomy, individual rats
Description: Using Crj-CD male rats (for Compound No. 19, rats having a body weight of from 371 to 484 g were used, and for Compound No. 10, rats having a body weight of from 444 to 574 g were used), each test group consisted of 3 rats. An experimental acute pancreatitis model was prepared by a closed duodenal loop method under anesthesia with halothane (manufactured by Hoechst Japan) and nitrous oxide (manufactured by Sumitomo Seika K.K.) applied by means of a general inhalation anesthesia machine (Model EM-2 and halothane evaporator F-Model). Then, Compound No. 19 or Compound No. 10 was continuously intravenously injected into the tail vein in an amount of 50 mg per kg or 40 mg per kg, respectively, at a rate of 0.05 ml per minute by means of a pump (Technicon AA II Proportioning Pump III, manufactured by Technicon Instruments Corporation). No injection was made to a control group. Gross pathological examination was conducted upon expiration of 6 hours after the ventrotomy in the case of the test group to which Compound No. 19 was administered, or upon expiration of 3 hours after the ventrotomy in the case of the test group to which Compound No. 10 was administered. As a result, as shown in the following Table 12, the groups to which the compounds of the present invention were administered, show distinct usefulness for treating acute pancreatitis.

[4] = system: experimental acute pancreatitis model; experiment: Effects against acute pancreatitis (Test Example 8, closed duodenal loop method, lesion scores); type: in vivo, Crj-CD male rats; settings: sodium salt, 6 hours after ventrotomy; for inhibition in vivo at 10 mg/kg: Rattus norvegicus, 10 mg/kg single intravenous injection
Summary of the method: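 Closed duodenal loop pancreatitis in male Crj-CD rats (n=3) under halothane/nitrous oxide; sodium-salt compounds given i.v. into tail vein by continuous infusion or bolus, controls untreated. At 6 h, four pancreatic lesions scored 0-3; inhibition % of total and hemorrhagic scores calculated versus control.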

[5] = 20 mg/kg continuous intravenous injection
[6] = read-out: Inhibition rate of hemorrhagic lesions (%)
[7] = read-out: Inhibition rate of pancreatitis lesions (%)

SMILES | inhibition at 1000 ppm [1] [%] | LD50 at 168 h [2] [mg/kg] | inhibition in vivo at 10 mg/kg [4, 6] [%] | inhibition in vivo at 10 mg/kg [4, 7] [%] | other results
CS(=O)(=O)Nc1ncc(C(F)(F)F)cc1NC(=O)c1ccc(F)cc1 [Compound No. 10, N-(2-methylsulfonylamino-5-trifluoromethyl-3-pyridyl)-4-fluorobenzamide] | 60 | 50 to 100 | – | – | Pancreatic hemorrhage Petechia Distribution [3]: ± and +
CCS(=O)(=O)Nc1ncc(C(F)(F)F)cc1NC(=O)C1CCCCC1 [Compound No. 47, N-(2-ethylsulfonylamino-5-trifluoromethyl-3-pyridyl)cyclohexanecarboxamide] | 75 | 58 | – | – | Inhibition rate of hemorrhagic lesions (%) [4, 5]: 68%
CCS(=O)(=O)Nc1ncc(C(F)(F)F)cc1NC(=O)C1CCCCC1 [Compound No. 251, sodium salt of N-(2-ethylsulfonylamino-5-trifluoromethyl-3-pyridyl)cyclohexanecarboxamide] | – | – | 79 | 80 | –
CS(=O)(=O)Nc1ncc(C(F)(F)F)cc1NC(=O)C(F)(F)C(F)(F)F [compound 13] | 87 | > 70 | – | – | Inhibition rate of hemorrhagic lesions (%) ([4]; 23 mg/kg continuous intravenous injection): 100%
CS(=O)(=O)Nc1ncc(C(F)(F)F)cc1NC(=O)c1ccccc1 [compound 43] | 47 | 78 | – | – | Inhibition rate of hemorrhagic lesions (%) [4, 5]: 81%
CS(=O)(=O)Nc1ncc(C(F)(F)F)cc1NC(=O)C1CCCC1 [compound 45] | 50 | 98 | – | – | Inhibition rate of hemorrhagic lesions (%) ([4]; 25 mg/kg continuous intravenous injection): 62%
Cc1cccc(C(=O)Nc2cc(C(F)(F)F)cnc2NS(C)(=O)=O)c1 [compound 78] | – | > 60 | 96 | 91 | –
CS(=O)(=O)Nc1ncc(C(F)(F)F)cc1NC(=O)c1cccc(Cl)c1 [compound 79] | – | – | 23 | 39 | –
CS(=O)(=O)Nc1ncc(C(F)(F)F)cc1NC(=O)c1cc2ccccc2s1 [compound 86] | – | > 40 | 87 | 85 | –
CS(=O)(=O)Nc1ncc(C(F)(F)F)cc1NC(=O)c1ccc2c(c1)CCC2 [compound 87] | – | 75 | 83 | 87 | –
C/C=C/C(=O)Nc1cc(C(F)(F)F)cnc1NS(=O)(=O)CC [compound 93, N-(2-ethylsulfonylamino-5-trifluoromethyl-3-pyridyl)crotonamide] | – | – | 70 | 70 | –
CCS(=O)(=O)Nc1ncc(C(F)(F)F)cc1NC(=O)C1CCCC1 [compound 94] | – | – | 11 | 11 | –
